Data reported in publication PMC6030209, “Structure-Activity Investigations and Optimisations of Non-metabolite Agonists for the Succinate Receptor 1” (Scientific Reports, 2018).

Experiments:
[1] = assay type: in vitro ADME, mouse; conditions: 1 hour, 1 μM, 0.5 mg/mL microsomes
Method: Microsomal stability was studied in mouse liver microsomes (0.5 mg/mL) at a final test compound concentration of 1 μM and performed in triplicates in accordance to the published protocol. In short: Prewarmed (37 °C) 0.1 M PBS7.4, 10 mM NADPH in PBS7.4 and test compound (1 mM in DMSO) were added to an Eppendorf® Tube. The samples were incubated for 5 min at 37 °C before addition of newly thawned microsomes. The samples were mixed by gentle vortexing and incubated for 1 h at 37 °C, 300 rpm in an Eppendorf® Thermomixer. Samples were quenched by addition of ice-cold MeOH/MeCN (1:1) and centrifuged for 5 min at 10,000 g. The supernatant was transferred to HPLC vials and stored in the freezer until analysis by HPLC/UPLC. The metabolic stability was calculated based on a 0 min sample. All compounds were analysed in triplicates.

[2] = physchem; assay type: physicochemical; conditions: pH 7.4, aqueous buffer, kinetic from dmso stock, 10 mM PBS7.4, 25 °C
Method: Duplicates of a 200 μM solution of the dicarboxylic acids were prepared from 0.01 M PBS7.4 and a 10 mM stock solution in DMSO. The samples were incubated in an Eppendorf® Thermomixer (25 °C, 800 rpm) for 24 h. Afterwards, the samples were centrifuged for 5 min at 11,000 rpm and the supernatant was filtered (0.45 μm PTFE membrane) before analysis by HPLC. The solubility was calculated based on a concentration-absorption curve.

[3] = assay type: physicochemical; conditions: after 70 hours in 10 mM PBS7.4, 37 °C
Method: Triplicates of a 50 μM solution of the test compounds were prepared from 0.01 M PBS7.4 and a 10 mM stock solution in DMSO. The samples were incubated in an Eppendorf® Thermomixer (37 °C, 650 rpm). The samples were briefly vortexed and 50 μL aliquots were withdrawn at the time points 0 h, 24 h, 48 h etc. and analysed immediately on UPLC. The chemical stability in PBS7.4 was determined at every time point in percentage relative to the 0 h time point.

[4] = logD7.4 determination (1-octanol/PBS7.4 shake flask); assay type: physicochemical; conditions: 1-octanol/PBS7.4, pH 7.4
Method: A glass vial with screw cap (8 mL) was charged with test compound (40 μL, 10 mM in DMSO), PBS7.4 (0.01 M, 1980 μL), and 1-octanol (1980 μL). The vial was capped and sealed with parafilm and shaken at 700 rpm using an IKA® KS 125 basic shaker for 24 h at room temperature. The parafilm was removed and the sample was allowed to equilibrate for 1 h before analysis. 100 μL of the octanol phase was withdrawn and diluted 1:10 with MeOH(+0.1% formic acid)/MilliQ water (4:1, v/v) and analysed by HPLC/UPLC. The interface was removed and the PBS7.4 phase analysed directly by HPLC/UPLC. All analysis was performed in duplicates and logD values were calculated from the peak areas (mAU*min) and adjusted for difference in injection volume and concentration-absorption effects from the solvents, using two calibration points per compound per solvent, and dilution of the octanol phase. All compounds were analysed in triplicates.

[5] = assay type: in vitro ADME; conditions: 2 hours, 37 °C
Method: FaSSIF, FeSSGF and FaSSGF were prepared in accordance to the manufacturers procedure, Biorelevant.com. Triplicates of a 50 μM solution of the test compounds were prepared from a 10 mM stock solution in DMSO diluted with FaSSGF/FaSSIF/FeSSIF. The samples were incubated in an Eppendorf® Thermomixer (37 °C, 650 rpm). Samples were withdrawn at 0 min and 120 min, centrifuged (10 min at 10,000 rpm) and the supernatant analysed by HPLC/UPLC. The stability was calculated based on peak area of a 0 point sample.

[6] = biological target: T1, mSUCNR1 (Mus musculus, UniProt Q99MT6); assay: IP3 turnover assay in mSUCNR1 transfected HEK-293 cells; assay type: cell-based
T1 construct: FLAG (own knowledge: pCMV-Tag 2B is an N-terminal FLAG vector); host or cells: HEK-293, transient transfection with Lipofectamine-2000
T1 sequence (Q99MT6 1-317): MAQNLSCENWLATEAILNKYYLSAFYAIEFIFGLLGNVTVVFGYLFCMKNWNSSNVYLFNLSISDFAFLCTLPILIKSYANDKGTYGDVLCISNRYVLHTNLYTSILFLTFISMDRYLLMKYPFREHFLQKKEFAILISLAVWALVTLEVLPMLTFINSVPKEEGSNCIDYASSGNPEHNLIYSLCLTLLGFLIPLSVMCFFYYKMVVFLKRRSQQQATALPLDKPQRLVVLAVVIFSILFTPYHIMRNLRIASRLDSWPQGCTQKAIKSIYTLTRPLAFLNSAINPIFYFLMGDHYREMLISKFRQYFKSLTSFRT
Method: Receptor constructs for mSUCNR1 and hSUCNR1 were bought from Origene and cloned into the eukaryotic expression vector pCMV-Tag(2B) (Stratagene).
Transient transfection of the HEK-293 cells was done with Lipofectamine-2000 according to manufacturer’s protocol. Cells were supplemented with fresh medium after 5 h.
96-well plates were coated with poly-D-lysine and HEK-293 cells were plated (35.000 cells/well). Cells were transfected for 5 h the following day and subsequently incubated O/N with 0.5 μCi/mL myo[3H]inositol (Perkin Elmer) in 100 μL growth medium. On day 3 cells were washed with 200 µL HBSS/well (Gibco, Life Technologies) followed by a pre-incubation (30 min, 37 °C) with 100 µL HBSS supplemented with 10 mM LiCl. Cells were stimulated with ligand (120 min, 37 °C) and lysed with 50 µL 10 mM formic acid (30 min on ice). In a white 96 well plate 20 µL cell extracts and 80 µL 1:8 diluted YSi scintillation beads (Perkin Elmer) were mixed. The plate was spun down, and a Packard Top Count NXT counter recorded light emission (scintillation) after an 8 h delay.

[7] = system: SUCNR1; assay: Active/inactive grouping by EC50 threshold (ALiBERO training set, Table S1); assay type: cell-based; conditions: active (1) / inactive (0), EC50 threshold of 10 µM
From the text: In brief, starting from the homology model supported by mutagenesis data[4], ALiBERO introduced receptor flexibility via Normal Mode Analysis and Monte Carlo sampling, to generate a small subset of receptor models (pockets). […] For a list of all compounds used in the optimisation protocol, see Table S1. Receptor structures were then chosen based on their ability to discriminate actives from inactives in a retrospective virtual screening using the docking protocol and scoring function in ICM (Molsoft L.L.C., San Diego, CA, USA)[20], as measured by the normalised square root area under the curve (NSQ_AUC). […] The ALiBERO-optimised receptor ensemble was subsequently validated in a virtual ligand screening using an external test set with a higher active:decoy ratio (~1:50).
ALiBERO is an iterative sampling-selection protocol for receptor optimisation that relies on the use of ligand information for selecting the best-performing receptor conformations. Homology models of the mouse SUCNR1 receptor were constructed according to Trauelsen et al.[4] and loaded into ICM (Molsoft L.L.C., San Diego, CA, USA). The structure was converted into an ICM object, thereby assigning protein atom types, optimising hydrogens and His, Pro, Asn, […] and Cys side-chain conformations. […] For a list of all compounds used in the optimisation protocol, see Table S1. ALiBERO was performed using the prepared receptor structure and ligand training set as input. Binding site residues were manually selected based on proximity to the position of MRS2500 in the superimposed structure of the P2Y1 receptor (PDB 4XNW). 100 elastic network normal mode analysis derived conformers were built in order to recreate backbone and side-chain flexibility (T = 300 K). Next, a flexible-ligand static-receptor small-scale virtual screening was performed on each of the receptor conformers, from which several pockets were selected for the following generation. The ligand and decoy molecules were docked into mSUCNR1, represented as pre-calculated potential grids and then sorted according to their ICM VLS scores. The maximum number of complementary pockets for each generation was set to 5 with a maximum of 10 generations. Receptor models were selected based on their combined screening performance, as determined by the normalised square root area under the curve, NSQ_AUC. After each round of virtual screening, an all-atom Monte Carlo side-chain refinement was performed to account for induced-by-ligand changes. NSQ_AUC values were calculated according to Katritch et al.[16].

[8] = system: SUCNR1; conditions: full agonist on SUCNR1; cited from earlier work

| Compound | stability in mouse liver microsomes [1] | solubility kinetic at 24 h [2] [µM] | chemical stability [3] [%] | logD at 24 h [4] | stability in FaSSGF ([5]; simulated gastrointestinal fluid FaSSGF) | stability in FaSSIF ([5]; simulated gastrointestinal fluid FaSSIF) | EC50 [6] [µM] | mSUCNR1 efficacy, % ([6]; efficacy relative to succinate (100%), IP3 turnover, HEK cells (N = 3)) [%] | Active [7] | EC50 [8] [µM] |
| --- | --- | --- | --- | --- | --- | --- | --- | --- | --- | --- |
| O=C(O)C[C@H](NC(=O)c1cccc(-c2ccc(OC(F)(F)F)cc2)n1)C(=O)O [Compound 31, (6-(4-(Trifluoromethoxy)phenyl)picolinoyl)-L-aspartic acid] | stable | > 200 | > 98 | -2.13 | stable | stable | 0.178 | 69.9 ± 2.2 | 1 (active (1)) |  |
| cis-epoxysuccinic acid |  |  |  |  |  |  |  |  |  | 2.7 |
